Results as given in PMC10648852, “Molecular drivers of resistance to sulbactam-durlobactam in contemporary clinical isolates of Acinetobacter baumannii” (Antimicrobial Agents and Chemotherapy, 2023).
Like-named read-outs stand apart in the source and are kept apart here.

Legend:
A. baumannii PBP3 S390T = system: A. baumannii PBP3 S390T; design: method as in McLeod et al. (2018); conditions: average ± SD, ref McLeod et al. (2018); cited from earlier work
[1] = system: A. baumannii clinical isolates; experiment: microbe, parasite or virus in culture; assay type: cell-based; conditions: Acinetobacter baumannii
How it was run: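 SUL-DUR combines serially twofold-diluted sulbactam with durlobactam held at 4 µg/mL; MICs obtained by CLSI-standard broth microdilution and read against CLSI breakpoints when these exist.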

With `C[C@@H](O)[C@H]1C(=O)N2C(C(=O)O)=C(S[C@@H]3CN[C@H](C(=O)N(C)C)C3)[C@H](C)[C@H]12` [meropenem] as the compound, how does the “k inact/K i” value (A. baumannii PBP3 S390T) read?
The value was 16,000 ± 6,000 ([3]) M^-1s^-1.

And the MIC ([1]; isolate ARC6644 (IHMA 1420327), Mexico, UTI, 2016, read-out: MIC)?
Its MIC is 64 µg/mL.

And the MIC ([1]; isolate ARC6645 (IHMA 1435703), France, UTI, 2016, read-out: MIC)?
The MIC was > 64 µg/mL.

And the MIC ([1]; isolate ARC6646 (IHMA 1484127), United States, RTI, 2016, read-out: MIC)?
The MIC was 64 µg/mL.

And the MIC ([1]; isolate ARC6647 (IHMA 1386786), Argentina, RTI, 2016, read-out: MIC)?
Its MIC is > 64 µg/mL.

And the MIC ([1]; isolate ARC6648 (IHMA 1407634), Spain, RTI, 2016, read-out: MIC)?
Its MIC is > 64 µg/mL.

What about the MIC ([1]; isolate ARC6650 (IHMA 1457337), Argentina, RTI, 2016, read-out: MIC) of the same compound?
The MIC was 64 µg/mL.

What about the MIC ([1]; isolate ARC6652 (IHMA 1465642), Belgium, RTI, 2016, read-out: MIC) of the same compound?
Its MIC is > 64 µg/mL.

What about the MIC ([1]; isolate ARC6653 (IHMA 1308777), Vietnam, RTI, 2016, read-out: MIC) of the same compound?
The MIC was > 64 µg/mL.

And the MIC ([1]; isolate ARC6799 (IHMA 1562935), Spain, UTI, 2017, read-out: MIC)?
The MIC was 64 µg/mL.

What about the MIC ([1]; isolate ARC6800 (IHMA 1557526), Turkey, RTI, 2017, read-out: MIC) of the same compound?
Its MIC is 64 µg/mL.

And the MIC ([1]; isolate ARC6801 (IHMA 1662094), Thailand, RTI, 2017, read-out: MIC)?
The MIC was > 64 µg/mL.

What about the MIC ([1]; isolate ARC6802 (IHMA 1557073), Spain, UTI, 2017, read-out: MIC) of the same compound?
The MIC was 64 µg/mL.

And the MIC ([1]; isolate ARC6803 (IHMA 1589408), Belgium, UTI, 2017, read-out: MIC)?
Its MIC is > 64 µg/mL.

What about the MIC ([1]; isolate ARC6805 (IHMA 1558650), United States, RTI, 2017, read-out: MIC) of the same compound?
Its MIC is 64 µg/mL.

What about the MIC ([1]; isolate ARC6808 (IHMA 1557168), Spain, RTI, 2017, read-out: MIC) of the same compound?
Its MIC is 64 µg/mL.

What about the MIC ([1]; isolate ARC6809 (IHMA 1699528), Guatemala, RTI, 2017, read-out: MIC) of the same compound?
The MIC was > 64 µg/mL.

And the MIC ([1]; isolate ARC6810 (IHMA 1699548), Guatemala, RTI, 2017, read-out: MIC)?
Its MIC is > 64 µg/mL.

And the MIC ([1]; isolate ARC6812 (IHMA 1699530), Guatemala, RTI, 2017, read-out: MIC)?
The MIC was > 64 µg/mL.

What about the MIC ([1]; isolate ARC6813 (IHMA 1699543), Guatemala, UTI, 2017, read-out: MIC) of the same compound?
Its MIC is > 64 µg/mL.

And the MIC ([1]; isolate ARC6814 (IHMA 1699512), Guatemala, RTI, 2017, read-out: MIC)?
Its MIC is > 64 µg/mL.

What about the MIC ([1]; isolate ARC6815 (IHMA 1699513), Guatemala, RTI, 2017, read-out: MIC) of the same compound?
Its MIC is > 64 µg/mL.

And the MIC ([1]; isolate ARC6816 (IHMA 1699521), Guatemala, RTI, 2017, read-out: MIC)?
The MIC was > 64 µg/mL.

And the MIC ([1]; isolate ARC6817 (IHMA 1699523), Guatemala, RTI, 2017, read-out: MIC)?
The MIC was > 64 µg/mL.

What about the MIC ([1]; isolate ARC6818 (IHMA 1683261), Thailand, RTI, 2017, read-out: MIC) of the same compound?
The MIC was > 64 µg/mL.

And the MIC ([1]; isolate ARC6819 (IHMA 1683267), Thailand, RTI, 2017, read-out: MIC)?
Its MIC is > 64 µg/mL.

And the MIC ([1]; isolate ARC6820 (IHMA 1647876), Argentina, RTI, 2017, read-out: MIC)?
The MIC was 64 µg/mL.

What about the MIC ([1]; isolate ARC6821 (IHMA 1699517), Guatemala, RTI, 2017, read-out: MIC) of the same compound?
Its MIC is > 64 µg/mL.

And the MIC ([1]; isolate ARC6822 (IHMA 1637626), Guatemala, RTI, 2017, read-out: MIC)?
The MIC was > 64 µg/mL.

And the MIC ([1]; isolate ARC6823 (IHMA 1620872), Greece, SSSI, 2017, read-out: MIC)?
Its MIC is > 64 µg/mL.

And the MIC ([1]; isolate ARC6824 (IHMA 1625487), Argentina, BSI, 2017, read-out: MIC)?
Its MIC is > 64 µg/mL.

What about the MIC ([1]; isolate ARC6937 (IHMA 1562926), Spain, UTI, 2017, read-out: MIC) of the same compound?
Its MIC is 64 µg/mL.

What about the MIC ([1]; isolate ARC6950 (IHMA 1820064), Israel, RTI, 2018, read-out: MIC) of the same compound?
Its MIC is > 64 µg/mL.

And the MIC ([1]; isolate ARC6953 (IHMA 1909827), Turkey, IAI, 2018, read-out: MIC)?
The MIC was > 64 µg/mL.

What about the MIC ([1]; isolate ARC6954 (IHMA 1838192), Guatemala, SSSI, 2018, read-out: MIC) of the same compound?
Its MIC is > 64 µg/mL.

And the MIC ([1]; isolate ARC6955 (IHMA 1825425), United States, RTI, 2018, read-out: MIC)?
The MIC was 64 µg/mL.

What about the MIC ([1]; isolate ARC7008 (IHMA 2009813), Thailand, BSI, 2019, read-out: MIC) of the same compound?
The MIC was > 64 µg/mL.

What about the MIC ([1]; isolate ARC7009 (IHMA 2043611), United States, UTI, 2019, read-out: MIC) of the same compound?
The MIC was > 64 µg/mL.

What about the MIC ([1]; isolate ARC7010 (IHMA 2043398), United States, RTI, 2019, read-out: MIC) of the same compound?
The MIC was > 64 µg/mL.

And the MIC ([1]; isolate ARC7011 (IHMA 2104553), Germany, RTI, 2019, read-out: MIC)?
Its MIC is > 64 µg/mL.

And the MIC ([1]; isolate ARC7012 (IHMA 2010001), Thailand, RTI, 2019, read-out: MIC)?
Its MIC is > 64 µg/mL.

What about the MIC ([1]; isolate ARC7013 (IHMA 1962831), Argentina, RTI, 2019, read-out: MIC) of the same compound?
The MIC was > 64 µg/mL.

And the MIC ([1]; isolate ARC7014 (IHMA 2045328), Guatemala, IAI, 2019, read-out: MIC)?
The MIC was > 64 µg/mL.

And the MIC ([1]; isolate ARC7015 (IHMA 2045327), Guatemala, UTI, 2019, read-out: MIC)?
The MIC was > 64 µg/mL.

What about the MIC ([1]; isolate ARC7016 (IHMA 2148441), Brazil, BSI, 2019, read-out: MIC) of the same compound?
The MIC was > 64 µg/mL.

And the MIC ([1]; isolate ARC7017 (IHMA 2148446), Brazil, BSI, 2019, read-out: MIC)?
Its MIC is > 64 µg/mL.

What about the MIC ([1]; isolate ARC7018 (IHMA 2045454), Guatemala, IAI, 2019, read-out: MIC) of the same compound?
The MIC was > 64 µg/mL.

And the MIC ([1]; isolate ARC7019 (IHMA 2114463), Thailand, RTI, 2019, read-out: MIC)?
Its MIC is > 64 µg/mL.
